This note sets out measurements from US8501186B2, “Adjuvant composition for vaccine” (Serum Institute of India, Ltd., priority 2009, dated 2013).

This test has as its system normal mice. Briefly: Comparative adjuvant activity on total anti-polysaccharide IgG levels in normal mice (Meningococcal A polysaccharide). It is filed as in vivo. The following applies: parenteral, 14 and 28 day; for Total IgG level: IgG day 42, Mean ± SE. The method, then: The present adjuvant and extracts were administered with Meningococcal A polysaccharide on indicated days and IgG levels were estimated on day 42 to assess adjuvant activity.

For `CC1=C(CO)C(=O)O[C@@H]([C@@H](C)[C@H]2CC[C@H]3[C@@H]4C[C@H]5O[C@]56[C@@H](O)C=CC(=O)[C@]6(C)[C@H]4CC[C@]23C)C1` [Withaferin A], where the note is “0.011 mg/kg”, the “Activity (%) (percent immunomodulatory activity)” value was found to be 38.12% and the “Total IgG level” value amounted to 397.47 ± 93.71.
Consider `CC1=C(C)C(=O)O[C@@H]([C@](C)(O)[C@H]2CC[C@H]3[C@@H]4[C@@H]5O[C@@H]5[C@@]5(O)CC=CC(=O)[C@]5(C)[C@H]4CC[C@]23C)C1` [Withanolide A], for which, where the note is “0.0185 mg/kg”, the “Activity (%) (percent immunomodulatory activity)” value was determined as 14.62% and the “Total IgG level” value stood at 329.84 ± 86.82.
